We go through ten molecules from ChEMBL document CHEMBL5303304, “EUbOPEN Chemogenomics Library - IncuCyte” (2023).

Format in all cases: toxicity, cell-based
For one series, the system named is U2OS. Briefly: Incucyte cell viability with U2OS. The following applies: human, 10 µM, compound concentration 10 uM.
In another series the test system is Fibroblast. Briefly: Incucyte cell viability with human fibroblast. The following applies: 10 µM, compound concentration 10 uM.
The next series deals with HEK-293T. Briefly: Incucyte cell viability with HEK293T. To be noted: human, 10 µM, compound concentration 10 uM.
Also: unitless GR value; below 1 slowed growth and below 0 cell loss.

Turning to `O=C(Nc1cc(C(F)(F)F)ccc1N1CCCCC1)c1ccncc1`, the “Growth Rate” value with U2OS (0 h, replicate number 1) is 0.2; in the series on U2OS (6 h, replicate number 2), 0.58; in the series on Fibroblast (0 h, replicate number 2), -0.43; in the series on Fibroblast (6 h, replicate number 2) it was 0.12; in the series with Fibroblast (12 h, replicate number 2), 0.6; in the series with Fibroblast (18 h, replicate number 2) it was 0.93. The “Growth Rate” value in the series on Fibroblast (24 h, replicate number 2) turned out to be 0.9; in the series on HEK-293T (6 h, replicate number 2), 0.49.
With `CCN1CCN(Cc2ccc(C(=O)Nc3ccc(C)c(Oc4ccc5c(c4)CC(=O)N5)c3)cc2C(F)(F)F)CC1.Cl.Cl`, the “Growth Rate” value is given as -0.46 in the series on U2OS (0 h, replicate number 2); -0.37 in the series with U2OS (6 h, replicate number 2); 0.23 in the series on U2OS (12 h, replicate number 1); -0.14 in the series on U2OS (12 h, replicate number 2); 0.37 with U2OS (18 h, replicate number 1); -0.02 in the series with U2OS (18 h, replicate number 2). Moreover, the “Growth Rate” value in the series with U2OS (24 h, replicate number 1) is on record as 0.51; with U2OS (24 h, replicate number 2), -0.01; with Fibroblast (0 h, replicate number 2), 0.42; with Fibroblast (6 h, replicate number 1) it was 0.34; with Fibroblast (6 h, replicate number 2) it was 0.36; with Fibroblast (12 h, replicate number 1) it was -0.1. Besides, the “Growth Rate” value is on record as -0.08 with Fibroblast (12 h, replicate number 2); -0.33 with Fibroblast (18 h, replicate number 1); -0.3 with Fibroblast (18 h, replicate number 2); -0.38 in the series with Fibroblast (24 h, replicate number 1); -0.31 in the series with Fibroblast (24 h, replicate number 2); -0.56 with HEK-293T (6 h, replicate number 1). Further, the “Growth Rate” value in the series on HEK-293T (6 h, replicate number 2) is reported as -0.1; in the series on HEK-293T (12 h, replicate number 1), -0.3; with HEK-293T (12 h, replicate number 2), 0.11; in the series with HEK-293T (18 h, replicate number 1), -0.23; with HEK-293T (18 h, replicate number 2) it was 0.15; in the series on HEK-293T (24 h, replicate number 1), -0.13. In addition, in the series on HEK-293T (24 h, replicate number 2), the “Growth Rate” value is given as 0.14.
`COc1ccc(F)c(F)c1C(=O)c1cnc(NC2CCN(S(C)(=O)=O)CC2)nc1N` [RG-547]: the “Growth Rate” value in the series on U2OS (0 h, replicate number 1) is on record as -1; with U2OS (0 h, replicate number 2), 0.68; in the series with U2OS (6 h, replicate number 2), 0.23; in the series with U2OS (12 h, replicate number 1) it was 0.73; in the series with U2OS (12 h, replicate number 2) it was 0.02; with U2OS (18 h, replicate number 1), 0.18. Further, the “Growth Rate” value is on record as 0.02 in the series on U2OS (18 h, replicate number 2); 0.06 in the series on U2OS (24 h, replicate number 1); -0.11 with U2OS (24 h, replicate number 2); -1 in the series with Fibroblast (0 h, replicate number 1); 0.02 in the series with Fibroblast (0 h, replicate number 2); 0.62 in the series on Fibroblast (6 h, replicate number 2). Besides, the “Growth Rate” value in the series on Fibroblast (12 h, replicate number 2) is reported as 0.53; in the series on Fibroblast (18 h, replicate number 1) it was 0.96; in the series with Fibroblast (18 h, replicate number 2) it was 0.28; with Fibroblast (24 h, replicate number 1), 0.65; in the series with Fibroblast (24 h, replicate number 2), 0.15; in the series with HEK-293T (0 h, replicate number 1) it was -1. Also, the “Growth Rate” value in the series with HEK-293T (0 h, replicate number 2) is given as 0.15; with HEK-293T (6 h, replicate number 1), 0.16; in the series with HEK-293T (6 h, replicate number 2), -0.37; with HEK-293T (12 h, replicate number 1), -0.1; with HEK-293T (12 h, replicate number 2), -0.5; with HEK-293T (18 h, replicate number 1), -0.15. The “Growth Rate” value in the series on HEK-293T (18 h, replicate number 2) is -0.47; with HEK-293T (24 h, replicate number 1), -0.13; in the series on HEK-293T (24 h, replicate number 2), -0.37.
As for `Nc1nc(-c2nn(Cc3ccccc3F)c3ncccc23)ncc1C1CC1`, the “Growth Rate” value is reported as 0.69 with U2OS (6 h, replicate number 1); 0.87 in the series with U2OS (18 h, replicate number 2); 0.68 in the series on U2OS (24 h, replicate number 1); 0.71 in the series on U2OS (24 h, replicate number 2); -0.93 in the series on Fibroblast (0 h, replicate number 2); 0.35 with Fibroblast (6 h, replicate number 1). The “Growth Rate” value in the series on Fibroblast (18 h, replicate number 1) came to 0.69; in the series with Fibroblast (24 h, replicate number 1) it was 0.73; in the series on Fibroblast (24 h, replicate number 2) it was 0.8; with HEK-293T (0 h, replicate number 2), 0.14.
As for `CN(C)C/C=C/C(=O)Nc1cccc(S(=O)(=O)N2CCC(NC(=O)c3n[nH]cc3NC(=O)c3c(Cl)cc(Cl)cc3Cl)CC2)c1`, the “Growth Rate” value is 0.35 with U2OS (6 h, replicate number 2); 0.1 in the series with U2OS (12 h, replicate number 1); -0.3 with U2OS (12 h, replicate number 2); -0.42 with U2OS (18 h, replicate number 1); -0.38 with U2OS (18 h, replicate number 2); -0.51 in the series with U2OS (24 h, replicate number 1). Further, the “Growth Rate” value with U2OS (24 h, replicate number 2) is listed as -0.42; in the series with Fibroblast (6 h, replicate number 2), 0.98; with Fibroblast (12 h, replicate number 1), 0.8; in the series with Fibroblast (12 h, replicate number 2), 0.45; in the series on Fibroblast (18 h, replicate number 1), 0.26; in the series on Fibroblast (18 h, replicate number 2), 0.09. Besides, the “Growth Rate” value in the series with Fibroblast (24 h, replicate number 1) is recorded as 0.12; in the series with Fibroblast (24 h, replicate number 2) it was -0.13; in the series with HEK-293T (6 h, replicate number 1) it was -0.58; in the series on HEK-293T (6 h, replicate number 2) it was -0.85; in the series on HEK-293T (12 h, replicate number 1), -0.49; with HEK-293T (12 h, replicate number 2), -0.7. In addition, the “Growth Rate” value in the series on HEK-293T (18 h, replicate number 1) is recorded as -0.34; in the series on HEK-293T (18 h, replicate number 2), -0.61; with HEK-293T (24 h, replicate number 1), -0.05; with HEK-293T (24 h, replicate number 2) it was -0.34.
As to `CC(C)(C)c1cnc(CSc2cnc(NC(=O)C3CCN(CC(=O)NCCOCCOCCOCCNc4cccc5c4C(=O)N(C4CCC(=O)NC4=O)C5=O)CC3)s2)o1` (stereo unspecified), the “Growth Rate” value is reported as 0.98 with U2OS (0 h, replicate number 2); 0.29 in the series on U2OS (6 h, replicate number 1); 0.25 in the series with U2OS (6 h, replicate number 2); 0.31 in the series with U2OS (12 h, replicate number 1); 0.19 in the series with U2OS (12 h, replicate number 2); 0.16 in the series on U2OS (18 h, replicate number 1). Also, the “Growth Rate” value in the series with U2OS (18 h, replicate number 2) is reported as -0.02; with U2OS (24 h, replicate number 1), -0.05; in the series on U2OS (24 h, replicate number 2) it was -0.04; in the series on Fibroblast (0 h, replicate number 1), -0.99; in the series with Fibroblast (6 h, replicate number 1), 0.1; in the series on Fibroblast (6 h, replicate number 2), 0.11. Also, the “Growth Rate” value in the series on Fibroblast (12 h, replicate number 1) is -0.04; in the series on Fibroblast (12 h, replicate number 2), -0.09; in the series with Fibroblast (18 h, replicate number 1), -0.02; with Fibroblast (18 h, replicate number 2), -0.15; with Fibroblast (24 h, replicate number 1), 0.11; in the series with Fibroblast (24 h, replicate number 2), -0.12. Moreover, the “Growth Rate” value was -0.56 in the series with HEK-293T (6 h, replicate number 1); -0.74 in the series on HEK-293T (6 h, replicate number 2); -0.47 with HEK-293T (12 h, replicate number 1); -0.62 with HEK-293T (12 h, replicate number 2); -0.38 in the series with HEK-293T (18 h, replicate number 1); -0.5 in the series with HEK-293T (18 h, replicate number 2). The “Growth Rate” value in the series with HEK-293T (24 h, replicate number 1) was -0.29; with HEK-293T (24 h, replicate number 2) it was -0.39.
As for `COc1ccc(-c2coc3cc(O)cc(O)c3c2=O)cc1` [BIOCHANIN], the “Growth Rate” value in the series on U2OS (0 h, replicate number 1) is listed as 0.85; in the series with U2OS (0 h, replicate number 2), -0.91; in the series with U2OS (6 h, replicate number 1), 1; in the series with U2OS (12 h, replicate number 2) it was 0.77; in the series on U2OS (24 h, replicate number 1) it was 0.95; in the series on U2OS (24 h, replicate number 2), 0.93. Also, the “Growth Rate” value in the series with Fibroblast (0 h, replicate number 1) was 0.87; in the series on Fibroblast (0 h, replicate number 2), -0.65; with Fibroblast (6 h, replicate number 2) it was 0.58; in the series with Fibroblast (12 h, replicate number 1), -0.08; with Fibroblast (12 h, replicate number 2), 0.69; with Fibroblast (18 h, replicate number 1) it was 0.21. The “Growth Rate” value in the series on Fibroblast (24 h, replicate number 2) stood at 0.94; with HEK-293T (0 h, replicate number 2) it was 0.93; in the series on HEK-293T (6 h, replicate number 1), 0.75; with HEK-293T (18 h, replicate number 2), 1.
Turning to `Cc1ncsc1-c1ccc(CNC(=O)[C@@H]2C[C@H](O)CN2C(=O)[C@@H](NC(=O)C2(F)CC2)C(C)(C)C)c(OCCOc2ccc(CN3CCN(c4cc(-c5ccccc5O)nnc4N)CC3)cc2)c1`, the “Growth Rate” value with U2OS (24 h, replicate number 1) is 0.98; in the series on Fibroblast (0 h, replicate number 2), 0.56; with HEK-293T (0 h, replicate number 1) it was -0.03; with HEK-293T (0 h, replicate number 2), -0.99.
Regarding `Cl.Cl.O=[N+]([O-])c1ccc(CN2CCOCCOCCN(Cc3ccc([N+](=O)[O-])cc3)CCOCC2)cc1`, the “Growth Rate” value was -0.05 in the series with U2OS (6 h, replicate number 1); 0.19 in the series with U2OS (6 h, replicate number 2); 0.28 in the series on U2OS (12 h, replicate number 1); 0.21 in the series with U2OS (12 h, replicate number 2); 0.69 in the series on U2OS (18 h, replicate number 1); 0.56 with U2OS (18 h, replicate number 2). For the same molecule, the “Growth Rate” value is reported as 0.67 in the series on U2OS (24 h, replicate number 1); 0.76 with U2OS (24 h, replicate number 2); 0.74 in the series with Fibroblast (0 h, replicate number 1); -0.71 with Fibroblast (6 h, replicate number 2); -0.95 in the series with Fibroblast (12 h, replicate number 1); 0.3 in the series with Fibroblast (12 h, replicate number 2). Moreover, the “Growth Rate” value in the series with Fibroblast (18 h, replicate number 1) is reported as -0.4; in the series with Fibroblast (18 h, replicate number 2), 0.63; with Fibroblast (24 h, replicate number 1), -0.06; with Fibroblast (24 h, replicate number 2), 0.84; in the series with HEK-293T (6 h, replicate number 1), -0.5; in the series with HEK-293T (6 h, replicate number 2), -0.29. The “Growth Rate” value with HEK-293T (12 h, replicate number 1) is reported as 0.04; in the series with HEK-293T (12 h, replicate number 2) it was 0.2; in the series with HEK-293T (18 h, replicate number 1), 0.13; with HEK-293T (18 h, replicate number 2), 0.39; in the series with HEK-293T (24 h, replicate number 1), 0.2; with HEK-293T (24 h, replicate number 2), 0.52.
As for `COc1ccc(S(=O)(=O)N2CCOCC2)cc1Nc1ccc2c(n1)N(C1CCOCC1)[C@H](C)C(=O)N2C`, the “Growth Rate” value is reported as 0.7 in the series with U2OS (24 h, replicate number 1); 0.96 in the series on U2OS (24 h, replicate number 2); -0.13 in the series on Fibroblast (0 h, replicate number 2); -0.44 in the series with Fibroblast (6 h, replicate number 2); 0.55 with Fibroblast (12 h, replicate number 2); 0.25 in the series with Fibroblast (18 h, replicate number 2). Besides, the “Growth Rate” value was determined as 0.36 in the series on Fibroblast (24 h, replicate number 2); 0.7 in the series on HEK-293T (24 h, replicate number 1); 0.81 in the series on HEK-293T (24 h, replicate number 2).
